{
  "source": "patent US6071525A",
  "about": "“Whitening cosmetics containing mulberrin” (priority 1997, dated 2000)",
  "key": {"tyrosinase [1]": {"tested_on": "tyrosinase", "settings": "background; cited from earlier work"}, "skin [2]": {"tested_on": "skin", "settings": "background; cited from earlier work"}, "skin [3]": {"tested_on": "skin", "settings": "background; cited from earlier work", "remark": "listed apart in the source"}, "tyrosinase [4]": {"molecular_target": "tyrosinase", "assay": "Tyrosinase inhibition effect (mushroom tyrosinase, tyrosine substrate, absorbance at 475 nm)", "type": "biochemical", "settings": "pH 6.8, 37° C., 10 minutes", "procedure": "The substrate, tyrosine was used as a solution (0.1 mg/ml) dissolved in 0.05 M sodium phosphate buffer (pH 6.8). […] Then 200 U/ml tyrosinase (0.5 ml) was added thereto, and the reaction performed at the same temperature for 10 minutes. As a control group, buffer solution (0.5 ml) was added instead of the compound. The reaction was quenched by placing the test tube containing the reaction mixture on ice. Absorbance was measured at a wavelength of 475 nm by using a spectrophotometer."}, "[5]": {"tested_on": "B-16 melanoma (ATCC CRL 6323) cell line", "assay": "Effect for melanin synthesis in melanocytes (B-16 melanoma)", "type": "cell-based, mouse", "protocol": "As melanocytes, commercially available B-16 melanoma (ATCC CRL 6323) cell line derived from mouse was used. The melanoma cell line was inoculated in DMEM culture medium containing glucose (4.5 g/l), 10% serum and 1% antibiotic agent, and cultivated in a 50 ml T-flask at 37° C. After cultivation under a condition of 5% CO2 for 24 hours, the culture solution was treated with 0.05% trypsin containing 0.02% EDTA to isolate cells, which was then inoculated in a 50 ml T-flask and cultivated for 48 hours. At this time, the number of cells was 5.76×10^6 cells/flask. A diluted solution of mulberrin in DMEM medium at a proper concentration was incorporated to the cultivated melanoma cells, and the mixture was cultivated at 37° C. for 5 days. After finishing cultivation, culture medium was thoroughly removed, and the residue was treated with 1 ml of saline-phosphate buffer solution (PBS) containing 0.02% EDTA and 0.05% trypsin to isolate cells, which were then centrifuged for 5 minutes to collect pure cells. The obtained cells were treated with a solution of 5% trichloroacetate (TCA), stirred, and centrifuged. Precipitated melanin was washed with saline-phosphate buffer solution, and treated with 1N NaOH to dissolve melanin therein. Absorbance at 475 nm was measured. Melanin concentration was determined from standard concentration curve of synthetic melanin (produced by Sigma)."}, "skin [6]": {"tested_on": "skin", "assay": "Whitening effect (general statement)", "settings": "versus Cortex mori, kojic acid, arbutin and Ramulus mori extract"}},
  "note": "“Also recorded” adds a separate entry of the source. Like-named read-outs stand apart in the source and are kept apart here.",
  "data": [
    {"smiles": "O=C1O[C@H]([C@@H](O)CO)C(O)=C1O", "note": "[Ascorbic acid (vitamin C), Ascorbic acid]", "values": [
      {"measurement": "inhibition of tyrosinase (in words)", "setting": "tyrosinase [1]", "value": "relatively low activity in inhibition of tyrosinase"}
    ]},
    {"smiles": "Oc1ccc(O)cc1", "note": "[Hydroquinone]", "values": [
      {"measurement": "carcinogenicity (in words)", "setting": "skin [2]", "value": "recognized as a carcinogen"},
      {"measurement": "skin irritation (in words)", "setting": "skin [2]", "value": "irritates the skin strongly"},
      {"measurement": "whitening activity (in words)", "setting": "skin [3]", "value": "irreversible whitening activity"}
    ]},
    {"smiles": "O=c1cc(CO)occ1O", "note": "[Kojic acid, kojic acid]", "values": [
      {"measurement": "inhibition of tyrosinase (in words)", "setting": "tyrosinase [1]", "value": "high activity"}
    ]},
    {"smiles": "CC(C)=CCc1c(-c2ccc(O)cc2O)oc2c(CC=C(C)C)c(O)cc(O)c2c1=O", "note": "[Mulberrin, mulberrin]", "values": [
      {"measurement": "IC50 (concentration required for 50% inhibition of tyrosinase activity)", "setting": "tyrosinase [4]", "value": 0.50, "unit": "µg/mL"},
      {"measurement": "inhibition of melanin synthesis (in words)", "setting": "[5]", "value": "very excellent effect in inhibiting melanin synthesis"},
      {"measurement": "inhibition at 10 µg/mL", "setting": "[5]; Mus musculus, B16, 120 h, mulberrin 10 μg/ml, 5 days, 37° C., read-out: Inhibition ratio of melanin synthesis", "value": 54.4, "unit": "%"},
      {"measurement": "inhibition at 20 µg/mL", "setting": "[5]; Mus musculus, B16, 120 h, mulberrin 20 μg/ml, 5 days, 37° C., read-out: Inhibition ratio of melanin synthesis", "value": 66.8, "unit": "%"},
      {"measurement": "inhibition at 50 µg/mL", "setting": "[5]; Mus musculus, B16, 120 h, mulberrin 50 μg/ml, 5 days, 37° C., read-out: Inhibition ratio of melanin synthesis", "value": 74.8, "unit": "%"},
      {"measurement": "inhibition at 100 µg/mL", "setting": "[5]; Mus musculus, B16, 120 h, mulberrin 100 μg/ml, 5 days, 37° C., read-out: Inhibition ratio of melanin synthesis", "value": 89.3, "unit": "%"},
      {"measurement": "inhibition of melanin synthesis (in words)", "setting": "[5]; listed as mulberrin", "value": "strong whitening agent inhibiting melanin synthesis in melanocytes; also recorded: very strong inhibition effect of melanin synthesis"},
      {"measurement": "Content of melanin", "setting": "[5]; mulberrin 10 μg/ml, 5 days, 37° C.", "value": 1.95, "unit": "pg/cell"},
      {"measurement": "Content of melanin", "setting": "[5]; mulberrin 20 μg/ml, 5 days, 37° C.", "value": 1.42, "unit": "pg/cell"},
      {"measurement": "Content of melanin", "setting": "[5]; mulberrin 50 μg/ml, 5 days, 37° C.", "value": 1.07, "unit": "pg/cell"},
      {"measurement": "Content of melanin", "setting": "[5]; mulberrin 100 μg/ml, 5 days, 37° C.", "value": 0.46, "unit": "pg/cell"},
      {"measurement": "whitening effect compared with conventional whitening agents (in words)", "setting": "skin [6]", "value": "much more intensive whitening effect than conventional whitening agents"}
    ]}
  ]
}
